Source: PubChem BioAssay (NCI)
Converted amounts (≈) assume the structure as drawn. “And” between values parts separate entries of the source, which are not always exact repeats. Equal entries are not always repeated.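 These data come from cells grown in 96-well plates and exposed to compound for 48 hours at five concentrations. GI50 marks 50% less growth. At the TGI there is no net growth.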

Legend:
Assay in all cases: inhibition of tumour cell growth, NCI panel, 48 h
UACC-62 melanoma = system: UACC-62 melanoma
KM12 colon = system: KM12 colon
OVCAR-5 ovarian = system: OVCAR-5 ovarian
PC-3 prostate = system: PC-3 prostate
SK-MEL-2 melanoma = system: SK-MEL-2 melanoma
BT-549 breast = system: BT-549 breast
U251 CNS = system: U251 CNS
MDA-N = system: MDA-N
TK-10 renal = system: TK-10 renal
MALME-3M melanoma = system: MALME-3M melanoma
SR leukemia = system: SR leukemia

Structure (SMILES)	TGI (UACC-62 melanoma) [µM]	TGI (KM12 colon) [µM]	TGI (OVCAR-5 ovarian) [µM]	TGI (PC-3 prostate)	TGI (SK-MEL-2 melanoma) [µM]	TGI (BT-549 breast)	TGI (U251 CNS) [µM]	TGI (MDA-N) [µM]	TGI (TK-10 renal) [µM]	TGI (MALME-3M melanoma) [µM]	TGI (SR leukemia)	GI50 (OVCAR-5 ovarian) [µg/mL]	GI50 (SK-MEL-2 melanoma) [µg/mL]	GI50 (TK-10 renal) [µg/mL]
CC1C(C#N)(C#N)C(C#N)=C(N)C1(Cl)[N+](=O)[O-] (stereo not given)	24	34.4	29.6	32.9 µM	58	26.3 µM	34.4	21.3	28.2	18.7	26.5 µM			
CC(=O)OC(Cc1c(O)c2c(C)cccc2oc1=O)C(C)(C)O (stereo not given)	> 100	> 100	> 100	> 100 µM	> 100	> 100 µM	> 100	> 100	> 100	> 100	> 100 µM			
C=C1C[C@H](O)[C@H](Br)C(C)(C)C12CCC(C)(Cl)C(Br)C2 (stereo not given in full)	15.6	9.88	4.25	1.77 µM	6.55	18.5 µM	8.91	10.8	13.1	16.6	19.7 µM			
C[C@@H]1CC[C@@]2(OC1)O[C@H]1C[C@H]3[C@@H]4CC[C@H]5C[C@@H](OC6OC(CO)C(OC7OC(CO)C(O)C(OC8OCC(O)C(O)C8O)C7OC7OC(CO)C(O)C(O)C7O)C(O)C6O)[C@H](O)C[C@]5(C)[C@H]4CC[C@]3(C)[C@H]1[C@@H]2C (stereo not given in full)	47.3	23.6	18.9	15.3 µM	24.8	7.47 µM	12.4	28.3	> 100	30.8	> 33.8 µM			
CSc1nc2c(c(=O)[nH]1)N=C(c1ccccc1)CC(c1ccccc1)N2 (stereo not given)	57.1	29.2	> 100	> 100 µM	76.7	> 100 µM	> 100	46.6		75.6	> 100 µM			
CN(C)c1ccc(C=C2C(=O)NC(=S)NC2=O)c2ccccc12	> 100	> 100	> 100	> 100 µM	> 100	> 100 µM	> 100	> 100	> 100	> 100	> 100 µM			
CCOC(=O)c1c(NC(=S)Nc2ccccc2)sc2c1CCOC2	> 100	> 100	> 100	> 100 µM	> 100	58 µM	> 100	> 100	> 100	> 100	> 100 µM			
CCOC(=O)NN(C(=O)OCC)c1c(C)cc(C)cc1C	> 100	> 100	> 100	> 100 µM	> 100	> 100 µM	> 100	> 100	> 100	> 100	> 100 µM			
Cc1ccc2c(/C=C/c3ccc(N(C)C)cc3)ccc(C(C)C)cc1-2	> 100	> 100	> 100	> 100 µM	> 100	> 100 µM	> 100	> 100	> 100	> 100	> 100 µM			
O=C(c1cc2c(c3ccccc13)NC1(CCCCC1)N=C2C(F)(F)F)C(F)(F)F	13.6	14.2	21.5	12.4 µM	5.87	15.8 µM	13.9	14.2	14	17.4	13.2 µM			
N#Cc1c(O)c(/C=N/c2ncccn2)c(=O)n2c1[nH]c1ccccc12		> 100	> 100	> 100 µM	> 100	> 100 µM	> 100	> 100	> 100	> 100	> 100 µM			
CC(=O)Oc1ccc2c3c1O[C@H]1[C@H](O)CC[C@@]4(O)[C@@H](C2)N(C)CC[C@]314	> 100	> 100	> 100	> 100 µM	> 100	> 100 µM	> 100	> 100	> 100	> 100	> 100 µM			
O=C1CC(=O)NC(=NNS(=O)(=O)c2ccc(Cl)cc2)N1	> 100	> 100	> 100	> 100 µM	> 100	> 100 µM	> 100	> 100	> 100	> 100	> 100 µM			
Cc1[nH]c(=O)nc(NNCc2ccc(Cl)cc2)c1C(=O)Nc1ccc(Cl)cc1	> 100	> 100	> 100	> 100 µM	> 100	> 100 µM	> 100	> 100	> 100	> 100	> 100 µM			
CCOC(=O)c1cccc(NC(=O)CI)c1	1.87	3.66	3.07	2.39 µM	2.4	1.48 µM	1.35	0.472	2.19	2.98	0.0918 µM			
ClCCCCCc1c2nc(c(CCCCCCl)c3ccc([nH]3)c(CCCCCCl)c3ccc([nH]3)c(CCCCCCl)c3nc1C=C3)C=C2	> 100	> 100	> 100	> 100 µM	> 100	> 100 µM	> 100	> 100	> 100	> 100	> 100 µM			
COc1cccc(C2c3cc4c(cc3OC(Nc3ccccc3)C2C)OCO4)c1OC (stereo not given)	> 100	> 100	> 100	> 100 µM	> 100	> 100 µM	> 100	> 100	> 100	> 100	11.2 µM			

Structure (SMILES)	TGI (UACC-62 melanoma) [µM]	TGI (KM12 colon) [µM]	TGI (OVCAR-5 ovarian) [µM]	TGI (PC-3 prostate)	TGI (SK-MEL-2 melanoma) [µM]	TGI (BT-549 breast)	TGI (U251 CNS) [µM]	TGI (MDA-N) [µM]	TGI (TK-10 renal) [µM]	TGI (MALME-3M melanoma) [µM]	TGI (SR leukemia)	GI50 (OVCAR-5 ovarian) [µg/mL]	GI50 (SK-MEL-2 melanoma) [µg/mL]	GI50 (TK-10 renal) [µg/mL]
CCOC(=O)c1nnc2c(C#N)c(-c3ccccc3)c(C)n2c1N	66.6	> 100	> 100	> 100 µM	> 100	> 100 µM	> 100	> 100	> 100	65.2	> 100 µM			
O=[N+]([O-])c1ccc(NNN=Nc2ccc(-c3nc4ccccc4s3)cc2)c([N+](=O)[O-])c1	27.7	> 100	71.5	73.3 µM	41.8	58.7 µM	76.3	35.3	> 100	77.6	90.1 µM			
c1ccc([I+]c2ccccc2)cc1		> 100	> 100	> 100 µM	> 100	> 100 µM	> 100	> 100	> 100	> 100	> 100 µM			
CCN1CN(c2ccccc2)C2(CCN(CC(CC3OCCO3)c3ccc(F)cc3)CC2)C1=O (stereo not given)	47.1	17.5	25.4	> 100 µM	46.8	53.2 µM	38.9	> 26.3	> 46.7	43.1	> 100 µM			
CC(=O)N(C(C)=O)c1cc2c3c(c1)CCCN3CCC2	> 10	> 10	> 10	> 10 µM	> 10	> 10 µM	> 10	> 10	> 10	> 10	> 10 µM			
COC(=O)CC1c2ccccc2N2C(=O)Cc3c([nH]c4ccccc34)C12 (stereo not given)	> 100	> 100	> 100	> 100 µM	> 100	> 100 µM	> 100	> 100	> 100	> 100	> 100 µM			
Cc1nc2sccn2c1/C=C1/C(=O)Nc2cccc(Cl)c21	> 100	> 100	> 100	> 100 µM	> 100	> 100 µM	> 100	38.1	> 100	> 100	> 100 µM			
CC(=O)OC(C)(C)CCC(=O)[C@](C)(O)[C@H]1[C@H](O)C[C@@]2(C)[C@@H]3CCc4c(cc(OC5OC(CO)C(O)C(O)C5O)c(O)c4C)C3(C)C(=O)C[C@]12C (stereo not given in full)	> 100	> 100	> 100	> 100 µM	> 100	> 100 µM	> 100	> 100	> 100	> 100	> 100 µM			
CN1CC2CN(Cc3ccccc3)CCN2c2cccnc21 (stereo not given)	> 100	89.1	> 100	> 100 µM	> 100	> 100 µM	> 100	> 100	> 100	> 100	> 100 µM			
COc1ccc(/C=C2\C[C@H]3[C@@H]4CCC5=CC(=O)CC[C@]5(C)[C@H]4CC[C@]3(C)C2=O)cc1OC	> 100	> 100	> 100	> 100 µM	43.6	> 100 µM		> 100		> 100	7.4 µM			
CN(Cc1cnc2c(N)nc(N)nc2n1)c1ccc(Cl)cc1	> 100	> 100	> 100	> 100 µM	> 100	> 100 µM	> 100	> 100	> 100	> 100	> 100 µM			
COc1cc2c(c(OC)c1OC)-c1ccc(SC)cc1C(O)CC2 (stereo not given)	20.4	< 0.01	> 100	> 100 µM and 63.9 µg/mL	> 100	41 µg/mL		0.461	> 100	> 100	34.7 µg/mL	0.249 (≈ 0.719 µM)	27.4 (≈ 79.2 µM)	14.2 (≈ 41 µM)
COC(=O)C12OC3CO[Si](C(C)C)(C(C)C)O[Si](C(C)C)(C(C)C)OC3C1Oc1nc(=O)ccn12 (stereo not given)	27.4	29.2	28.6	29.2 µM	31.6	32.1 µM	29.6	32.7	30.9	28.1	32 µM			
O=c1oc2cc(O)ccc2c(O)c1Cc1c(O)c2ccc(O)cc2oc1=O	> 100		> 100	> 100 µM	> 100	> 100 µM	> 100	> 100	> 100	> 100	> 100 µM			
COC(=O)/C=C1/OC(c2ccc(OC)cc2)=C(Cl)C1=O	37.9	36.4	31.6	28.9 µM	33.6	26.3 µM	22.4	32.7	40.1	30.7	9.53 µM			
CCO/C=N/C1=C(C#N)SC2=N/C(=C\c3ccccc3)C(=O)N21	> 100	> 100	> 100	> 100 µM	> 100	> 100 µM	> 100	> 100	> 100	> 100	> 93.8 µM			
COc1ccc(-c2c(C#N)c(S)n(NS(=O)(=O)c3ccccc3)c(=O)c2C#N)cc1	> 100	> 100	> 100	> 100 µM	> 100	46 µM	> 100	> 100	> 100	> 100	80.3 µM			
